The values below come from patent US10118942B2, “Toll-like receptor 2 ligands and methods of making and using thereof” (H. LEE MOFFITT CANCER CENTER AND RESEARCH INSTITUTE, INC., priority 2015, dated 2018).

The target in data set [1] is T1, TLR2 (Homo sapiens, UniProt O60603). As to the kind of experiment: In cyto Europium TRF competition binding assay. The following applies: competition with 90 nM Eu-labeled compound 11, SU.86.86 cells, 1 h 37° C.; read-out: TLR2 Binding Affinity (Ki). On the set-up: SU.86.86 pancreatic cells with endogenous expression of TLR2 were used for the assay; host or cells: SU.86.86 pancreatic adenocarcinoma cells. How it is done:
Europium Time-Resolved Fluorescence (TRF) binding assays were performed as described in Handle et al. with slight modifications using SU.86.86 cells plated in 96-well black plates with white opaque wells (PerkinElmer) (Handl et al., Lanthanide-based time-resolved fluorescence of in cyto ligand-receptor interactions. Anal Biochem 2004, 330(2):242-50; Handl et al., Development of a lanthanide-based assay for detection of receptor-ligand interactions at the delta-opioid receptor. Anal Biochem 2005, 343(2):299-307; Josan et al., Solid-phase synthetic strategy and bioevaluation of a labeled delta-opioid receptor ligand Dmt-Tic-Lys for in vivo imaging. Org Lett 2009, 11(12):2479-82). Cells were grown in the 96-well plates for 2 days reaching approximately 80% confluency. Competition binding assays were performed to test the TLR2 binding specificity of the test ligand using SU.86.86 cells. On the day of the experiment, the cell culture media was aspirated and 50 μL of nonlabeled test ligand was added in a series of decreasing concentrations (1 μM to 0.01 nM) followed by 50 μL of the competing Eu-labeled ligand 11 (Huynh et al., Novel Toll-like Receptor 2 Ligands for Targeted Pancreatic Cancer Imaging and Immunotherapy. J Med Chem 2012) at a fixed concentration of 90 nM. Cells were incubated with labeled and unlabeled ligands for 1 h at 37° C. Following incubation, cells were washed three times to remove unbound ligand. Next, 100 μL of DELFIA Enhancement Solution (PerkinElmer) was added to each well. Cells were incubated for 30 min at 37° C. prior to reading. The plates were read on PerkinElmer VICTOR X4 Multilabel reader using the standard Europium TRF protocol. To determine the mean statistical analysis was performed using GraphPad Prism software. Binding of the monoacyl TLR2 ligand (compound 14 of Table 2) was tested using the (Eu)DTPA chelate version of the diacyl TLR2 ligand (compound 11 used in Huynh et al, Id.) in a time-resolved fluorescence competition binding assay. SU.86.86 pancreatic cells with endogenous expression of TLR2 were used for the assay.
Target sequence in this assay (O60603 21-784): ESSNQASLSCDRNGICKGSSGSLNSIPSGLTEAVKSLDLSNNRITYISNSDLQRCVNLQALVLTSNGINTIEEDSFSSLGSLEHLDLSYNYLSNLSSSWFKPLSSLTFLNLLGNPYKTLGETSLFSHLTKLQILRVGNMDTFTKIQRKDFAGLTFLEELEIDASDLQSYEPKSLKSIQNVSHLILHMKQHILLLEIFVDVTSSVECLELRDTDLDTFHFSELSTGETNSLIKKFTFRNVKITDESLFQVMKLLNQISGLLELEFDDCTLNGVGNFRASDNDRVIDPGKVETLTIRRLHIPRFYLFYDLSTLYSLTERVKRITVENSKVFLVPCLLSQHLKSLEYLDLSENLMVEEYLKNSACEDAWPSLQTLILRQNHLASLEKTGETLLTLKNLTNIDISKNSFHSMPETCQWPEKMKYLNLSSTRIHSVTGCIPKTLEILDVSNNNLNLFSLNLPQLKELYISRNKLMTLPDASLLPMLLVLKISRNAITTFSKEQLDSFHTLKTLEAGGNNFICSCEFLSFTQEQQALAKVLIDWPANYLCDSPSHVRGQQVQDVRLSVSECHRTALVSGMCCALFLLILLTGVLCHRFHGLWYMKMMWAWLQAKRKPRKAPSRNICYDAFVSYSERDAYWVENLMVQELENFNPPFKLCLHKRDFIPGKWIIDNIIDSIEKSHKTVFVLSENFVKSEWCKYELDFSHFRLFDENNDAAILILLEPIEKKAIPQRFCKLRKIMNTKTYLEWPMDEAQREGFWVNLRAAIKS

The target in data set [2] is T1, TLR2. As to the kind of experiment: In vitro TLR2 functional bioassay (NF-κB luciferase reporter). The class given is cell-based. The following applies: HEK-293/hTLR2 cells; for agonist activity compared to TLR2 agonist controls (Pam2CSK4, Pam3CSK4, HKLM): all at 1 μg/mL. How it is done:
The in vitro TLR2 functional bioassay was developed and optimized for use in high-throughput screening of soluble compound libraries to identify both TLR2 agonists and antagonists. The bioassay measures the induction of NF-κB signaling via TLR2 in HEK-293/hTLR2 cells (Invivogen) and parental HEK-293 cells as a negative control. Cells were seeded at a density of 40,000 per well using a WellMate microplate dispenser (Thermo Fisher Scientific/Matrix) in black 96-well plates with opaque white wells (PerkinElmer, Waltham, Mass.) and then incubated at 37° C. On day 2, the cells were transiently transfected with pNifty-Luc(InvivoGen, San Diego, Calif.), an NF-κB inducible reporter plasmid expressing the luciferase reporter gene (Schindler et al., Three NF-kappa B binding sites in the human E-selectin gene required for maximal tumor necrosis factor alpha-induced expression. Mol Cell Biol 1994, 14(9):5820-31) using an optimized 4:1 ratio by volume of FugeneHD transfection reagent (Promega, Madison, Wis.) to pNifty-Luc plasmid DNA (1 μg/mL). On day 3, the cells were stimulated with either test peptides or controls adjusted to a final concentration of 1 μg/mL using a NanoDrop spectrophotometer, ND1000 (Thermo Fisher Scientific). Synthetic di- and triacylated LP ligands, Pam2CSK4 and Pam3CSK4 (InvivoGen), were used as positive controls. TNF-α (InvivoGen) was also used as a transfection control that induces NF-κB independently of TLR2. On day 4 after 24 h of peptide stimulation, luciferase induced activity by the induction of NF-κB was measured. The medium was aspirated from the wells using an ELx405 SelectCW plate washer (BioTek, Winooski, Vt.), and 150 μg/mL D-luciferin (Gold Biotechnology, St. Louis, Mo.) was dispensed using the microplate dispensor. The plates were incubated at 37° C. for 5 min. The luminescence intensity was measured using the standard luminescence protocol on a Victor X4 multilabel plate reader equipped with a plate stacker for readout of multiple plates at a time (PerkinElmer, Waltham, Mass.). For each in vitro TLR2 bioassay, at least three different experiments were performed in triplicate (n≥3). Data were analyzed with GraphPad Prism software, and curves were generated with the appropriate nonlinear fit regression analysis.
Target sequence in this assay (O60603 21-784): as above
In general terms: Reporter assays use an easily measured gene product as a stand-in for the process of interest.

For data set [3], the system named is TLR2 expressing human pancreatic tumor xenografts (SU.86.86 cells). As to the kind of experiment: In vivo TLR2 selectivity (blocking) fluorescence imaging. On the set-up: species or system nude mice. How it is done:
Female athymic nude mice 6-8 weeks old (Harlan) bearing human pancreatic tumor xenografts of SU.86.86 cells on the right flank were used. Mouse weights and tumor volumes were determined using caliper measurements and the formula: volume (mm3)=(length×width^2)/2. Images were acquired when the tumors reached an average size of 500 mm^3. For the blocked group, a co-injection of 100 nmol/kg of the fluorescently labeled Compound 16 plus 2 μmol/kg Pam2CSK4 (a 20-fold excess) was administered via tail vein injection; for the unblocked group, 100 nmol/kg Compound 16 was administered. Fluorescence images were acquired at time 0 and 24 h using the Caliper Xenogen IVIS200 system (PerkinElmer) with the 710-760 nm excitation and 810-875 nm emission filter set. The fluorescence was quantified using Living Image software, in which the quantified signals were corrected for both instrument and mouse background subtractions. The quantified fluorescence was then plotted using GraphPad Prism software and underwent statistical analysis using Student's t-test.

In data set [4] the target is T1, TLR2. The settings on record: Huynh et al.; read-out: binding affinity (Ki); cited from earlier work.
Target sequence in this assay (O60603 21-784, species assumed): as the sequence (O60603 21-784) above
The subject of the next data set is SU.86.86 cells. In words: Cytotoxicity assay (Dojindo CCK8 Kit). The class given is cell-based, human. The settings on record: 24 hours, 21 to 2690 nM. How it is done:
SU.86.86 were treated with Compound 16 for 24 hours over a range of concentrations (40 to 512 ng/mL corresponding to 21 to 2690 nM). Pam2CSK4 was added to SU.86.86 for 24 hours over the same range of concentrations (40 to 512 ng/mL). Three different experiments were performed in triplicate (n≥3). Data were analyzed with GraphPad Prism software.

“Also recorded” adds a separate entry of the source. Where two headings read alike, the source gives them in different places.

Consider `CCCCCCCCCCCCCCCC(=O)OCCSC[C@H](NC(=O)COCC(=O)NCCCOCCOCCOCCCNC(C)=O)C(=O)NCC(=O)N[C@H](CO)C(=O)NCCCOCCOCCOCCCNC(=O)COCC(N)=O` [Compound 14, Ac-Pego-Cys(S-[palmitoyloxyethyl])-Gly-DSer-PEGO-NH2], for which the Ki – broadly, a measure of affinity in units of concentration, obtained from inhibition or displacement – at TLR2 [1] came out at 22 nM. Further, the EC50 (in general, the midpoint of the concentration-response curve) at TLR2 [2] (0.001 ng/mL to 10 μg/mL, read-out: EC50, TLR2 agonistic activity) was 674 nM. The “agonist activity compared to TLR2 agonist controls (Pam2CSK4, Pam3CSK4, HKLM)” value at TLR2 [2] was “significantly less agonist potency”.
Take `CCCCCCCCCCCCCCCC(=O)OCCSC[C@H](NC(=O)COCC(=O)NCCCOCCOCCOCCCNC(=O)c1ccc(C2=C(/C=C/C3=[N+](CCC)c4ccccc4C3(C)C)CCC/C2=C\C=C2\N(CCC)c3ccccc3C2(C)C)cc1)C(=O)NCC(=O)N[C@H](CO)C(=O)NCCCOCCOCCOCCCNC(=O)COCC(N)=O` [Compound 16, IR780-Pego-Cys(S-[palmitoyloxyethyl])-Gly-DSer-PEGO-NH2]: the inhibition constant Ki at TLR2 [1] was 16 nM. Moreover, in data set [3] (100 nmol/kg i.v., blocked with 2 μmol/kg Pam2CSK4 (20-fold excess), 24 h), the “mean tumor fluorescence, unblocked tumor/blocked tumor” value is reported as 2.67 fold. For the same compound, in data set [3] (100 nmol/kg i.v., blocked with 2 μmol/kg Pam2CSK4, 24 h post-injection), the “tumor fluorescence in blocked versus unblocked group” value is listed as “significant reduction in the ex vivo fluorescence signal; also recorded: significant reduction in the tumor fluorescence”. Further, in data set [3] (24 h post-injection), the “tumor fluorescence signal by in vivo imaging” value is given as “retention of fluorescence signal in the tumor”. Further, the concentration for half-maximal inhibition (IC50) (as a rule, the concentration at which inhibition is half-maximal) on TLR2 [2] (0.001 ng/mL to 10 μg/mL, read-out: IC50, inhibition of TLR2 agonistic activity of Pam2CSK4) was found to be 361 nM. For the same compound, the results for the “agonist activity compared to TLR2 agonist controls (Pam2CSK4, Pam3CSK4, HKLM)” value at TLR2 [2] and on TLR2 [2] (listed as compound 16) were “significant decrease in agonist response” and “complete loss in agonist activity”, respectively.
Turning to `CCCCCCCCCCCCCCCC(=O)OC[C@H](CSC[C@H](NC(=O)COCC(=O)NCCCOCCOCCOCCCNC(C)=O)C(=O)NCC(=O)N[C@H](CO)C(=O)NCCCOCCOCCOCCCNC(=O)COCC(N)=O)OC(=O)CCCCCCCCCCCCCCC` [compound 10, reference compound], the values for the Ki at TLR2 [4] and on TLR2 [1] were 24 nM and 91 nM, respectively.
Take Pam2CSK4 [reference compound]: the cell viability entry in the data set on SU.86.86 cells was “cell viability decreases at higher concentrations past 336 nM”.
